Data reported in patent publication US12053480B2, “Methods and pharmaceutical compositions for treating peripheral demyelinating diseases” (INSERM (INSTITUT NATIONAL DE LA SANTE ET DE LA RECHERCHE …, priority 2015, dated 2024).
“Also recorded” adds a separate entry of the source.

Columns and labels:
VDAC1 = molecular target: T1, VDAC1 (Mus musculus, UniProt Q60932); assay: Cytoplasmic calcium imaging (GCaMP2, multiphoton) in mSC of mouse sciatic nerve; format: in vivo
T1 construct: strongly expressed in mSC mitochondria; from tissue; host or cells: myelinating Schwann cells (mSC) of the sciatic nerve of living mice (wild type; db/db and +/db in A10)
Experimental: (§1) Mice were anesthetized with isoflurane inhalation and placed under a Stemi2000 microscope (Zeiss). Incision area was shaved and cleaned using betadine solution. After incision, the gluteus superficialis and biceps femoris muscles were separated to reveal the cavity traversed by the sciatic nerve. The nerve was lift out using spatula and a thin glass needle filled with viral solution (8 μl) was introduced into the nerve with a micromanipulator. This solution was injected over 30 min with short pressure pulses using a Picospritzer III (Parker Hannifin) coupled to a pulse generator. After injection, the nerve was replaced into the cavity, the muscles were readjusted, and the wound was closed using clips (for further details see Gonzalez et al., 2014^3).
(§2) TRO19622 drug (Tocris bioscience, Ref. 2906) was diluted in ethanol to 20 mM and then, the solution was diluted in sterile PBS to 20 μM. TRO19622 treatments were realized by 3 mg/kg intraperitoneal (IP) injections of 20 mM solution or by intra sciatic nerve injections of 2 μl of drug solution 2 μM using a Hamilton syringe or a glass needle in sterile conditions 30 minutes before multiphoton image acquisitions or immunohistochemistry and demyelination studies respectively. Methyl jasmonate drug (Sigma-Aldrich, Ref. 392707) was diluted in 1 ml of sterile PBS to 1M or 3M. Methyl jasmonate treatments were realized by intra sciatic nerve injections of 1 μl of drug solution using a glass needle and micromanipulator in sterile conditions following the same virus injections procedure (see in vivo virus injection in the sciatic nerve method) two hours before multiphoton image acquisition. […] All drug concentrations were previously evaluated by Bordet et al, 2007^5; Goldin et al, 2008^6; Sharov et al, 2007^7.
First injected mouse was anesthetized with 5% of isoflurane a 1.5% of oxygen into the anesthesia system box (World Precision Instruments, Ref. EZ-B800) for 5 minutes. Anesthesia controls were realized^8. Then, mouse was placed in anesthesia mask and the incision area was shaved and cleaned with betadine and ethanol 70% solution. Incision was realized using a scalpel and the skin was retracted using forceps in order to expose the gluteus superficialis and bleeps femoris muscles. Next, the connective tissue that connects both muscles was cut and the sciatic nerve was gently lifted out using a spatula. A flexible bridge was slide below sciatic nerve and it was placed into a plastic first pool fixed to the bridge. Mouse was placed under the multiphoton microscope, the bridge was fixed using magnetic brackets to avoid physiological movement and mouse legs were fixed using clippers. Microscope dark box temperature is controlled to 37° C. during all time-lapse imaging. Finally, a second pool was fixed to the first pool using a drop of agarose low melting 3% (Promega, Ref. V2111) in Leibovitz's L15 medium (Gibco Life Technologies) and filled with deionized water to immerse the objectives 20× or 63× (Carl Zeiss Microscopy).
All time-lapse images were obtained with a multiphoton microscope Zeiss LSM 7 MP OPO. Mitochondria motility images were acquired by time-lapse recording of one image every five minutes during five hours at 920 nm. GCaMP2 and SypHer probe images were acquired by time-lapse recording of one image every fifteen minutes during five hours at 985 nm. Images were acquired to constant 1% of laser intensity to 100 msec of acquisition time with 512×512 resolution and 10 images of z-stack of 20 μm. Images were saved in Zeiss .czi format and processed using Image J program. For further details see Gonzalez et al., 201X^8
To characterize mitochondria physiology during the demyelination process we combined two in vivo methods. We used the nerve crush model to reliably induce demyelination in the mouse sciatic nerve and a viral approach^19 allowing the expression of different fluorescent probes selectively into mitochondria of myelinating Schwann cells (mSC) in mouse sciatic nerve. […]

mSC mitochondria = assay: Mitochondrial pH imaging (mito-SypHer) in mSC of mouse sciatic nerve; format: in vivo; conditions: after nerve crush
Experimental: as §1, §2
First injected mouse was anesthetized with 5% of isoflurane a 1.5% of oxygen into the anesthesia system box (World Precision Instruments, Ref. EZ-B800) for 5 minutes. Anesthesia controls were realized^8. Then, mouse was placed in anesthesia mask and the incision area was shaved and cleaned with betadine and ethanol 70% solution. […]

CMT1A rats = assay: Behavioral motor tests (rotarod, grip, CatWalk) in CMT1A rats; format: in vivo, rat
Experimental: […] Mice and rats were first given a pretraining trial of two days to familiarize them with the rotating rod. For control and diabetic mice latency to fall was measured at fixed speed 10 rpm over a 180 s time as a cut-off. No acceleration testing was performed for mice. For control and CMT1A rats latency to fall and maximum rpm (revolutions per minute) were measured at accelerated speed. […] Each animal underwent three trials a day. For each day, data were averaged for each animal (values from the three trials), normalized according to animal weight and then averaged for each treated group.
Detailed analysis of gait was performed on free-walking 16 weeks old diabetic mice and 12 weeks old CMT1A rats using the CatWalk method (CatWalk XT 10.5, Noldus Information Technology) during PBS or TRO19622 treatment. The runs were analyzed when the speed of crossing was constant and homogenous. At least three compliant runs were analyzed for each animal Data were averaged per animal, normalized according to animal weight and then per treated group. The resulting data provided quantitative parameters and qualitative walking patterns.
Neuromuscular strength of diabetic mice and CMT rats was assessed in standardized grip strength tests for front, hind and all limbs. All limbs grip strength was measured by rat supporting on the metal grid and pulling the animal's tail toward a horizontal grid connected to a gauge. Front and hind limb grip strength were measured by supporting the forelimbs or hindlimbs respectively and pulling the animal's tail toward a horizontal T-bar connected to a gauge. The maximum force (measured in newtons) exerted onto the T-bar or grid before the animals lost grip was recorded, and the mean of 3 repeated measurements was calculated. All data were normalized according to animal weight.
Finally, we studied the neuromuscular performance of CMT1A and control rats using behavioral motor tests. […] Moreover, using catwalk test we observed a decrease of paw time stand (FIG. 2B), hind paw distance (FIG. 2C) and an increase of paw print area (FIG. 2D). […] Therefore inhibiting mitochondrial calcium release through VDAC1 opens a major avenue toward the treatment of human CMT1A.

[1] = CMT1A rats treated for one month

T1 sequence (Q60932 14-296): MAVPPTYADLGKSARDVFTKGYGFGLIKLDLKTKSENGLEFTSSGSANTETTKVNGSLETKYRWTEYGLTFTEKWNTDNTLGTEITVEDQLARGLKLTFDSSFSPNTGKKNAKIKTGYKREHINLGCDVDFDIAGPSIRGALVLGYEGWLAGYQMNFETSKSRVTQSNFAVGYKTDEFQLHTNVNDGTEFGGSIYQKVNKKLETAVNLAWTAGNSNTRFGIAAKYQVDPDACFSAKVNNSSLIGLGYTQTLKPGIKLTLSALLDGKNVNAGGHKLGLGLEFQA

## CC(C)CCC[C@@H](C)[C@H]1CC[C@H]2[C@@H]3CCC4=C/C(=N\O)CC[C@]4(C)[C@H]3CC[C@]12C [TRO19622, (NZ)—N-[(8S,9S,10R,13R,14S,17R)-10,13-dimethyl-17-[(2R)-6-methylheptan-2-yl]-1,2,6,7,8,9,11,12,14,15,16,17-dodecahydrocyclopenta[a]phenanthren-3-ylidene]hydroxylamine]
VDAC1; after nerve crush with VDAC1 silenced or blocked
  part of the calcium appearing in the cytoplasm after nerve crush that is not abolished (non-mitochondrial origin): 13%
VDAC1; cytoplasmic GCaMP2, after nerve crush
  presence of cytoplasmic calcium in mSC after crush: strong reduction
mSC mitochondria
  changes induced by nerve crush in mitochondrial pH not abrogated: 12%
CMT1A rats; [1]
  grip strength: significant increase
  latency on accelerating rotarod: significant increase
CMT1A rats; CMT1A rats, 2 months after stopping the treatment
  effects on demyelination, g-ratio and behavioral motor tests after stopping the treatment: disappeared; also recorded: did not last
CMT1A rats; CMT1A rats, catwalk test
  hind paw distance: decrease
  paw print area: increase
  paw time stand: decrease
